Measured values as given in patent US7625917B2, “Thiolesters and uses thereof” (priority 1998, dated 2009).
Like-named read-outs stand apart in the source and are kept apart here.

What was measured:
[1] = biological target: T1, Sp1 (Homo sapiens, UniProt P08047); experiment: Sp1 super gel shift EMSA (K562 cell nuclear extracts); type: biochemical; details: specificity for CCHC vs CCHH zinc finger
T1 construct: treatment of K562 cell nuclear extracts with the compounds; host or cells: K562 cell nuclear extracts
T1 sequence (P08047 whole entry): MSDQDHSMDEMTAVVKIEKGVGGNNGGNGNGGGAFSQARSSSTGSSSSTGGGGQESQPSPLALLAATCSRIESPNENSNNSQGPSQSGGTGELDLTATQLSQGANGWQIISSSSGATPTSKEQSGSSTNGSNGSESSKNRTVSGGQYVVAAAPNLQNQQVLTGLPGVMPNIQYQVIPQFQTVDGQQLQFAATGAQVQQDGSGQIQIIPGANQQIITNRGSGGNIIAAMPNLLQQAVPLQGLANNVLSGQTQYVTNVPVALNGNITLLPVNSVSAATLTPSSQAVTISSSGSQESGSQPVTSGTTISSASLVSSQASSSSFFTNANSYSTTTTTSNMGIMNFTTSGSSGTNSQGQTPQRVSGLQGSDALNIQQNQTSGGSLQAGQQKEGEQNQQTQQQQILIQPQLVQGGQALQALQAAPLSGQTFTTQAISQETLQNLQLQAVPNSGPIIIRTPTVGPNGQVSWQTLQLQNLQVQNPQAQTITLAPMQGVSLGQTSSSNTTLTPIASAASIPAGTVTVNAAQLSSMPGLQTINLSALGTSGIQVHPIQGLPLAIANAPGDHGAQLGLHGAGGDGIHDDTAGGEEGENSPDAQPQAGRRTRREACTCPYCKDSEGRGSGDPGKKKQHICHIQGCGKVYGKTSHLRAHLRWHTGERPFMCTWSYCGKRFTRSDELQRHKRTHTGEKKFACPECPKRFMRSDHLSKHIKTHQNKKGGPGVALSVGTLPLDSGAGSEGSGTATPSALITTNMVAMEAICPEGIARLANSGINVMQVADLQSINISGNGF
Description: To determine if compound 44, 45 or 47 binding activity was specific for CCHC zinc fingers, a super gel shift EMSA after treatment of K562 cell nuclear extracts with the compounds was performed. This was followed by super shifting with Sp1-specific antibody. Sp1 was chosen because it is a cellular transcription factor that contains three copies of a classical type CCHH zinc finger motif that are required for Sp1 binding to its DNA target. […] Super gel shifting to determine the specificity of zinc finger reactive compounds was carried out using an Sp1 consensus oligomer (Stratagene, La Jolla, Calif.), K562 cell nuclear extracts, and antibodies for Sp1 (Sp1[PEP2]-G) (extracts and Sp1 Abs from Santa Cruz Biotechnology, Inc., Santa Cruz, Calif.). The binding reactions of oligonucleotides with K562 nuclear extract, as well as electrophoretic conditions were carried out as described in the Gelshift Buffer Kit, Stratagene , La Jolla, Calif.

[2] = system: CEM-SS cells; experiment: cells; type: cell-based; details: for IC50: 50% cytotoxicity, read-out: IC50
[3] = biological target: T2, recombinant HIV-1 NCp7 protein (Human immunodeficiency virus type 1 group M subtype B, UniProt P03347); experiment: Trp37 zinc finger fluorescence (zinc ejection) assay; type: biochemical; details: for zinc finger reactivity in the presence of glutathione (in words): 2 molar excess of glutathione; for Zinc Finger Reactivity RFU/min: average decrease in relative fluorescence units over 30 min; for inhibition at 2000 µM (stock): Table 8, GSH +: 2 mM compound, 2 h at 37° C. with 4 mM reduced glutathione, 30 min incubation, read-out: Zinc Finger Reactivity % Decrease
T2 construct: recombinant HIV-1 NCp7 protein
Description: Zinc finger reactivity was measured using a Zn specific fluorochrome, TSQ, N-(6-methoxy-8-quinolyl)-p-toluenesulfonamide, assay or a Trp37 zinc finger fluorescence assay. Fluorescent measurements of the Trp37 residue in the C-terminal finger of recombinant HIV-1 NCp7 protein were performed as described by Rice (1995) Science 270:1194-1197; Rice (1997) Antimicrob. Agents Chemother. 41:419-426. Measurement of Zn ejection from both fingers was measured using the Zn-selective fluorchrome probe TSQ (Molecular Probes, Eugene Oreg.) as described by Rice (1996) J. Med. Chem 39:3606-3616. […] Briefly, 50 nM NCp7 was treated with test compounds for 1 hour at RT in […] buffer containing 10% glycerol and 50 mM Tris-HCl (pH 7.5). Labeled oligomer (0.1 picomole, end labeled [^32P] was added in an equal volume of buffer containing 10% glycerol, 50 mM Tris-HCl (pH 7.5), 400 mM KCl and 40 mM MgCl2. The reaction was continued for 15 min at room temperature, and a total of […] (or ¼ of the total reaction volume) was separated on nondenaturing 4.5% polyacrylamide gels in 0.5× Tris-Borate electrophoresis buffer. NCp7-oligomer complexes were visualized by autoradiography.
Changes in the intrinsic fluorescence of aromatic protein moieties are commonly used to monitor a reaction which involves a change in protein conformation. In the present invention, fluorescence can be used to monitor the loss of metal ion from a zinc finger, e.g., the loss of zinc from a CCHC retroviral zinc finger protein, after contact with a thiolester of the invention. The intrinsic fluorescence of Trp37 in the second zinc finger of HIV-1 NC protein has been used to monitor nucleic acid binding and conformation of the zinc finger complex (see, Summers (1992) supra).
Zinc ejection is measured by the ability of compounds to chemically attack the cysteines in purified NCp7 protein resulting in a loss of fluorescence due to the. movement of the tryptophan 37 residue […] position on the protein. Zinc ejection is measured and expressed as either percent decrease in total fluorescence or decrease in relative fluorescence units per min during a 30 min assay (RFU/min). A thiolester is considered within the scope of the invention if any amount of zinc ejection is detected.

[4] = system: virus attachment; experiment: cell-based p24 attachment assay; design: species or system HIV-1
Description: The cell-based p24 attachment assay was performed as described in Rice (1995) Science 270:1194-1197. Viral inactivation assays were carried out as described in Rice (1995) Science 270:1194-1197, and Turpin (1997) supra, with minor modifications. Briefly, MAGI-CCR-5 cells were plated (4×10^4 cells per well) in flat bottomed 2-cm well plates for 24 h, after which the culture media was removed and compound-treated virus was added. The virus used was obtained by transient transfection of pNL4-3 into HeLa cells yielding the replication competent NL4-3 virus. Virus containing supernatants were treated for 2 h at 37° C. after which residual compound was removed by centrifugation (18,000×g, 1 h, 4° C.). Virus pellets were resuspended and placed on the MAGI-CCR-5 monolayers and cultured for 48 h. Monolayers were fixed and stained with X-gal solution and blue cells counted.

[5] = biological target: T3, recombinant HIV-1 protease (Human immunodeficiency virus type 1 group M subtype B, UniProt P03366); experiment: HIV-1 protease substrate cleavage (HPLC) assay; type: biochemical
T3 construct: recombinant HIV-1 protease
Description: The 5-bromovaleroyl thioester, compound 44, and two 5-pyridiniovaleroyl thioesters, compounds 45and 47, were analyzed in mechanistic and target-based assays. […] Assays for activity against HIV-1 reverse transcriptase rAdT (template/primer) and rCdG (template/primer) using recombinant HIV-1 reverse transcriptase (S. Hughes, ABL Basic Research NCI-FCRDC, Frederick Md.) were performed as described by Rice (1997) supra. Substrate cleavage of recombinant HIV-1 protease in the presence of test compounds using an HPLC-based methodology with the artificial substrate Ala-Ser-Glu-Asn-Try-Pro-Ile-Val-amide (Multiple Peptide Systems, San Diego Calif.) was performed as described by Rice (1997) supra. The ability of recombinant HIV-1 integrase (S. Hughes, ABL Basic Research NCI-FCRDC, Frederick Md.) to carry out 3′ processing and strand transfer activities in the presence of test compounds was performed as described by Buckheit (1994) AIDS Res. Hum. Retroviruses 10:1497-1506, and Turpin (1998) Antimicrob. Agents Chemother. 42: 487-494.

[6] = Human immunodeficiency virus 1, Table 7, high dose test 100 μM, read-out: Attachment I50

| SMILES | effect on super shifting of Sp1 bound to its DNA target [1] | IC50 ([2]; Table 5) | zinc finger reactivity (in words) [3] | zinc finger reactivity in the presence of glutathione (in words) [3] | Zinc Finger Reactivity RFU/min ([3]; Table 5) | Zinc Finger Reactivity RFU/min ([3]; Table 6) | inhibition at 2000 µM (stock) [3] | inhibition of virus attachment (in words) [4] | IC50 [4, 6] | inhibition of HIV-1 protease (in words) [5] | IC50 ([2]; Table 10) | cellular toxicity (in words) ([2]; high test dose of 316 μM) | zinc finger reactivity / zinc ejection rate [3] | Zinc Finger Reactivity RFU/min ([3]; Table 10) | IC50 ([4]; Human immunodeficiency virus 1, read-out: Attachment I50) | IC50 [5] | IC50 ([2]; Homo sapiens, CEM-SS, Table 6) |
| --- | --- | --- | --- | --- | --- | --- | --- | --- | --- | --- | --- | --- | --- | --- | --- | --- | --- |
| CC(=O)NS(=O)(=O)c1ccc(NC(=O)c2ccccc2SC(=O)CCCCBr)cc1 [Compound 44, N-[2-(5-bromovaleroylthio)benzoyl]sulfacetamide] | failed to alter the pattern of super shifting of Sp1 | 184.5 µM | promoted metal ion (zinc) ejection | maintained the capacity to attack the cysteine thiols | 1.8 RFU/min | 1.8 RFU/min | 28% | did not inhibit | > 100 µM | did not inhibit |  |  |  |  |  |  |  |
| CC(=O)NS(=O)(=O)c1ccc(NC(=O)c2ccccc2SC(=O)CCCC[n+]2ccccc2)cc1 [Compound 45, N-[2-(5-pyridinio-valeroylthio)benzoyl]sulfacetamide bromide] | failed to alter the pattern of super shifting of Sp1 | >316 µM | promoted metal ion (zinc) ejection | maintained the capacity to attack the cysteine thiols | 3.6 RFU/min | 3.6 RFU/min | 36.9% | did not inhibit | > 100 µM | did not inhibit | >316 µM | no toxicity | 3.6 RFU/min | 3.6 RFU/min |  |  |  |
| O=C(CCCC[n+]1ccccc1)Sc1ccccc1C(=O)Nc1ccc(S(=O)(=O)c2ccc([N+](=O)[O-])cc2)cc1 [Compound 47] | failed to alter the pattern of super shifting of Sp1 |  | promoted metal ion (zinc) ejection | maintained the capacity to attack the cysteine thiols |  | 4.1 RFU/min | 21.1% | did not inhibit |  | did not inhibit |  |  |  |  | > 100 µM | > 100 µM |  |
| O=C(O)CCCC[n+]1ccccc1.[Br-] [Compound 53, 5-pyridiniovaleric acid] |  |  |  |  |  | 4 RFU/min |  |  |  |  |  |  | 4 RFU/min |  |  |  | > 316 µM |
